pEC50: −log10 of the molar value. Values joined by “and” are separate entries in the source; they are usually repeats but may differ in a detail not shown here. Equal values may be shown once.
target: T1, human GPR119 (Homo sapiens, UniProt Q8TDV5); assay: Cyclic AMP assay in stable cell line; assay type: cell-based; details: CHO-K1 cells stably transfected with human GPR119; cAMP levels (FRET, cAMP femto kit); 1 h at 37° C; read-out: EC50 Range
T1 construct: expressed in transfected cells
T1 sequence (Q8TDV5 1-335): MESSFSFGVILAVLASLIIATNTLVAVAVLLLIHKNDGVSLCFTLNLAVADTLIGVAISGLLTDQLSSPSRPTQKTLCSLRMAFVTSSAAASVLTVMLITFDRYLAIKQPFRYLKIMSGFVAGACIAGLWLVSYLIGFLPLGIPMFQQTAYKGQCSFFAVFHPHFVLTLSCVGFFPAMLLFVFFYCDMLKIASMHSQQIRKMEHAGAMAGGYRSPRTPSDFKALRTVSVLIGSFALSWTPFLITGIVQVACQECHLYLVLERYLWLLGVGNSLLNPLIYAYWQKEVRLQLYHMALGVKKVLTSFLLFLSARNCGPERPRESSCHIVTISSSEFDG
Description: Cyclic AMP Assay in Stable Cell Line:
Chinese Hamster Ovary (CHO-K1) cells were stably transfected with human GPR119 and were maintained in Ham's F-12 complete medium containing 10% heat inactivated FBS (Sigma, UK). The cells were maintained under a selection pressure with 500 μg/ml G418 (GENETICIN). Stable clones were analyzed for functional cAMP response to OEA (oleoylethanolamide).
To estimate activation of GPR119 and induction of cAMP levels by GPR119 agonists, cells were serum starvation for 18-24 h, trypsinized and seeded in 96 well plates at a, density of 7500 cells/well. The cells were then treated with test compounds diluted in serum free Ham's F12 for 1 h at 37° C. The cAMP levels were measured by using the cAMP femto kit (CisBio) by following the manufacturer's instructions. Following treatment with a test compound, the cells were lysed and cAMP levels were estimated by adding D2-labelled cAMP and europium-cryptate conjugated anti-cAMP antibody. Close proximity of D2 and cryptate results in FRET and the subsequent fluorescence that is measured at 665 and 620 nm. The FRET response is calculated as the ratio of fluorescence at 665 to fluorescence at 620 nm. The unlabelled cAMP produced as a result of GPR119 activation/agonism competes with the D2-cAMP leading to a decrease in the FRET signal. Thus the FRET signal is inversely proportional to the amount of cAMP produced by the treated cells. In a separate set of wells, known concentrations of cAMP were added in order to get a standard linear curve for extrapolation of the cAMP values in the unknown/test samples. Fluorescence was measured on BMG Labtech PHERAstar machine.
The concentration of compound required to stimulate a half-maximal response (EC50) was determined using the GraphPad Prism software.
The compounds prepared were tested using the above assay procedure and the results obtained are given below.

Row | Compound | pEC50
1 | CCc1cnc(N2CCC(Oc3ccc(-n4ccc5cc(C(=O)NC)ccc54)nc3)CC2)nc1 [Example-63, 1-(5-((1-(5-Ethylpyrimidin-2-yl)piperidin-4-yl)oxy)pyridin-2-yl)-N-methyl-1H-indole-5-carboxamide] | > 7.30
2 | CCc1cnc(N2CCC(Oc3ccc(-n4ccc5cc(C(=O)NCC(F)(F)F)ccc54)nc3)CC2)nc1 [Example-88, 1-(5-((1-(5-Ethylpyrimidin-2-yl)piperidin-4-yl)oxy)pyridin-2-yl)-N-(2,2,2-trifluoroethyl)-1H-indole-5-carboxamide] | 6.00 to 6.60
3 | CC(C)c1noc(N2CCC(Oc3ccc(-n4ccc5cc(S(C)(=O)=O)ccc54)nc3)CC2)n1 [Example-4, 3-Isopropyl-5-(4-((6-(5-(methylsulfonyl)-1H-indol-1-yl)pyridin-3-yl)oxy)piperidin-1-yl)-1,2,4-oxadiazole] | > 7.30
4 | CC(C)(C)OC(=O)N1CCC(Oc2ccc(-n3ccc4cc(S(C)(=O)=O)cc(F)c43)nc2)CC1 [Example-91, tert-Butyl-4-((6-(7-fluoro-5-(methylsulfonyl)-1H-indol-1-yl)pyridin-3-yl)oxy)piperidine-1-carboxylate] | > 7.30
5 | CCOC(=O)Nc1ccc2c(ccn2-c2ccc(OC3CCN(c4nc(C(C)C)no4)CC3)cn2)c1 [Example-141, Ethyl(1-(5-((1-(3-isopropyl-1,2,4-oxadiazol-5-yl)piperidin-4-yl)oxy)pyridin-2-yl)-1H-indol-5-yl)carbamate] | > 7.30
6 | CCc1cnc(N2CC3COCC(C2)C3Oc2ccc(-n3ccc4cc(S(C)(=O)=O)ccc43)nc2)nc1 (stereo not drawn) [Example-51, anti 7-(5-Ethylpyrimidin-2-yl)-9-((6-(5-(methylsulfonyl)-1H-indol-1-yl)pyridin-3-yl)oxy)-3-oxa-7-azabicyclo[3.3.1]nonane] | > 7.30
7 | CCc1cnc(N2CCC(Oc3ccc(-n4ccc5cc(C(=O)NC6CC6)ccc54)nc3)CC2)nc1 [Example-54, N-Cyclopropyl-1-(5-((1-(5-ethylpyrimidin-2-yl)piperidin-4-yl)oxy)pyridin-2-yl)-1H-indole-5-carboxamide] | > 7.30
8 | CCc1cnc(N2CCC(Oc3ccc(-n4ccc5cc(C#N)ccc54)nc3)CC2)nc1 [Example-58, 1-(5-((1-(5-Ethylpyrimidin-2-yl)piperidin-4-yl)oxy)pyridin-2-yl)-1H-indole-5-carbonitrile] | 6.00 to 6.60
9 | CCc1cnc(N2CCC(Oc3ccc(-n4ccc5cc(CNC(=O)C(C)C)ccc54)nc3)CC2)nc1 [Example-98, N-((1-(5-((1-(5-Ethylpyrimidin-2-yl)piperidin-4-yl)oxy)pyridin-2-yl)-1H-indol-5-yl)methyl)isobutyramide] | > 7.30
10 | CN(C)C(=O)c1ccc2c(ccn2-c2ccc(OCC3CCN(C(=O)OC(C)(C)C)CC3)cn2)c1 [Example-45, tert-butyl 4-(((6-(5-(dimethylcarbamoyl)-1H-indol-1-yl)pyridin-3-yl)oxy)methyl)piperidine-1-carboxylate] | > 7.30 and 6.60 to 7.30
11 | CCS(=O)(=O)c1ccc2c(ccn2-c2ccc(OC3CCN(CC(C)(C)O)CC3)cn2)c1 [Example-13, 1-(4-((6-(5-(Ethylsulfonyl)-1H-indol-1-yl)pyridin-3-yl)oxy)piperidin-1-yl)-2-methylpropan-2-ol] | 6.60 to 7.30
12 | CCc1cnc(N2CCC(Oc3ccc(-n4cc(C)c5cc(S(C)(=O)=O)ccc54)nc3)CC2)nc1 [Example-168, 1-(5-((1-(5-Ethylpyrimidin-2-yl)piperidin-4-yl)oxy)pyridin-2-yl)-3-methyl-5-(methylsulfonyl)-1H-indole] | > 7.30
13 | CS(=O)(=O)c1ccc2c(ccn2-c2ccc(OC3CCN(Cc4ccc(F)cc4)CC3)cn2)c1 [Example-82, 1-(5-((1-(4-Fluorobenzyl)piperidin-4-yl)oxy)pyridin-2-yl)-5-(methylsulfonyl)-1H-indole] | 6.60 to 7.30
14 | CCc1cnc(N2CCC(Oc3ccc(-n4ccc5cc(NC(=O)C(C)(C)C)ccc54)nc3)CC2)nc1 [Example-118, N-(1-(5-((1-(5-Ethylpyrimidin-2-yl)piperidin-4-yl)oxy)pyridin-2-yl)-1H-indol-5-yl)pivalamide] | > 7.30
15 | CC(C)OC(=O)N1CCC(Oc2ccc(-n3ccc4cc(C(=O)N5CCCC5)ccc43)nc2)CC1 [Example-70, Isopropyl 4-((6-(5-(pyrrolidine-1-carbonyl)-1H-indol-1-yl)pyridin-3-yl)oxy)piperidine-1-carboxylate] | 6.60 to 7.30

test system: C57 BL/6J mice; assay: Oral glucose tolerance test; assay type: in vivo; details: blood glucose delta AUC; male C57 BL/6J mice fasted 16 h; 10 mg/kg oral gavage 30 min before glucose bolus 3 g/kg; 20-120 min
Description: Oral Glucose Tolerance Test:
9-10 weeks old male C57 BL/6J mice were maintained on a regular chow diet. The day of the experiment mice were fasted for 16 h and then randomized in to groups (n=7-8) based on blood glucose and bodyweight to receive vehicle (80% PEG400, 10% Tween80, 10% Ethanol) or test compounds (at 10 mg/kg). Vehicle or test compounds were delivered via oral gavage at 10 ml/kg volume. Thirty minutes later, the mice were dosed orally with a glucose bolus (3 g/kg) at 10 ml/kg volume. Blood glucose measurements were taken at 20, 40, 60 and 120 minutes after glucose administration by glucometer (CONTOUR TS, Bayer). Total AUC and Delta AUC were calculated by using graph pad prism (5.0).

Row | Compound | % reduction in delta AUC at 10 mg/kg
16 | CCOC(=O)Nc1ccc2c(ccn2-c2ccc(OC3CCN(c4nc(CC)no4)CC3)cn2)c1 [Example-142, Ethyl(1-(5-((1-(3-ethyl-1,2,4-oxadiazol-5-yl)piperidin-4-yl)oxy)pyridin-2-yl)-1H-indol-5-yl)carbamate] | 35%
17 | CCc1cnc(N2CCC(Oc3ccc(-n4ccc5cc(C(=O)NC)ccc54)nc3)CC2)nc1 [Example-63, 1-(5-((1-(5-Ethylpyrimidin-2-yl)piperidin-4-yl)oxy)pyridin-2-yl)-N-methyl-1H-indole-5-carboxamide] | 28%

same assay, conditions: blood glucose total AUC; male C57 BL/6J mice fasted 16 h; 10 mg/kg oral gavage 30 min before glucose bolus 3 g/kg; 20-120 min

Row | Compound | % reduction in total AUC at 10 mg/kg
18 | CCOC(=O)Nc1ccc2c(ccn2-c2ccc(OC3CCN(c4nc(CC)no4)CC3)cn2)c1 [Example-142, Ethyl(1-(5-((1-(3-ethyl-1,2,4-oxadiazol-5-yl)piperidin-4-yl)oxy)pyridin-2-yl)-1H-indol-5-yl)carbamate] | 20%
19 | CCc1cnc(N2CCC(Oc3ccc(-n4ccc5cc(C(=O)NC)ccc54)nc3)CC2)nc1 [Example-63, 1-(5-((1-(5-Ethylpyrimidin-2-yl)piperidin-4-yl)oxy)pyridin-2-yl)-N-methyl-1H-indole-5-carboxamide] | 19%

From patent US9000175B2, “Bicyclic GPR119 modulators” (Lupin Limited, priority 2010, dated 2015)
